Data on ten molecules can be found in patent publication US4246342A, “Process for the manufacture of pyruvate oxidase, and analytical method and kit for the use of the same” (Toyo Jozo Kabushiki Kaisha, priority 1978, dated 1981).

Experiment [1] relates to pyruvate oxidase (B-0667). The experiment is described as follows: Effect of several substances added on the enzyme activity. It counts as biochemical, Pediococcus sp. B-0667. The settings on record: 5 mM of the substance added instead of MgCl2 in the assay system; enzyme from B-0667; MgCl2 = 100. How it is done: (§1) (a) Effect of several substances on the enzyme activity is examined by adding 5 mM of the substance indicated below instead of MgCl2 in the assay system.
(§2) The assay method of pyruvate oxidase of the present invention uses a reaction mixture as follows: […]
(§3) The above reaction mixture (1.0 ml) is pre-incubated at 37° C. for 3 minutes. To this solution is added the enzyme solution (20 μl) and incubated at 37° C. for 10 minutes. 0.1 M citrate buffer (pH 6.0, 2 ml) containing 0.1 M EDTA is added to stop the reaction. The violet color formed is measured by colorimetric method at 565 nm.
(§4) A unit (1 unit, 1 U) of enzyme activity is defined as the activity which generates 1 μmole of hydrogen peroxide per minute.

Experiment [2] has as its target T1, pyruvate oxidase (IFO-12317) (Aerococcus viridans, UniProt A0ABP2I6X2).
T1 sequence (A0ABP2I6X2 1-592): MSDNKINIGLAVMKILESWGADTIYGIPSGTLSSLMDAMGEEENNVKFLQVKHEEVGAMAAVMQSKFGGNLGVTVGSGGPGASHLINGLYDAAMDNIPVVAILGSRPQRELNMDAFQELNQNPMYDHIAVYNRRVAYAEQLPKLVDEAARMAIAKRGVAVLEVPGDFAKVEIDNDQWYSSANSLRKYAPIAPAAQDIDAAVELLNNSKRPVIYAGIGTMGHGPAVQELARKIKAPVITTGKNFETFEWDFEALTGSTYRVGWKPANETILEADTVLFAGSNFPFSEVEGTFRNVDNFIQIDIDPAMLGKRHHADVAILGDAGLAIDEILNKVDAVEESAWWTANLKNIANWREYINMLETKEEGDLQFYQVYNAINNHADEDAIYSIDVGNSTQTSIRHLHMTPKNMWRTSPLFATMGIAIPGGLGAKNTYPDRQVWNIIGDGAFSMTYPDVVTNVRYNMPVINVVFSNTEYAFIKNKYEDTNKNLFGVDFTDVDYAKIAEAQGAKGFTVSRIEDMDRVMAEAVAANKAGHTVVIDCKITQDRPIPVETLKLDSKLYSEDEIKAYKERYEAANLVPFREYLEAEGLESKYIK
The experiment is described as above. The settings on record: 5 mM of the substance added instead of MgCl2 in the assay system; enzyme from IFO-12317; MgCl2 = 100. It counts as biochemical, Aerococcus viridans IFO-12317. How it is done:
as §1, §2, §3, §4

Experiment [3] deals with T2, pyruvate oxidase (IFO-12219) (Aerococcus viridans, UniProt A0ABP2I6X2).
T2 sequence (A0ABP2I6X2 1-592): T1 sequence (A0ABP2I6X2 1-592)
The description is as above. In kind it is biochemical, Aerococcus viridans IFO-12219. The following applies: 5 mM of the substance added instead of MgCl2 in the assay system; enzyme from IFO-12219; MgCl2 = 100. How it is done:
as §1, §2, §3, §4

The test system of experiment [4] is pyruvate oxidase (B-0668). The experiment is described as above. In kind it is biochemical, Streptococcus sp. B-0668. The following applies: 5 mM of the substance added instead of MgCl2 in the assay system; enzyme from B-0668; MgCl2 = 100. How it is done: as §1, §2, §3, §4
A further experiment concerns pyruvate oxidase. Description: Effect of substances on the enzyme, summary statements for the four strains. The following applies: summary in words; for Effect on the enzyme (inhibited / activated): 5 mM substance; for Requirement of the enzyme for the substance (cofactor / substrate): elimination from the assay system. In kind it is biochemical. The protocol:
as §1
0.1 M dimethylglutarate-NaOH buffer is used in the case of phosphate elimination.
The assay method of pyruvate oxidase of the present invention uses a reaction mixture as follows:
as §3

For experiment [5], the system named is pyruvate oxidase (B-0667). The experiment is described as follows: Effect of elimination of a substance from the assay system on the enzyme activity. It counts as biochemical, Pediococcus sp. B-0667. The settings on record: enzyme from B-0667, no elimination = 100, 0.1 M dimethylglutarate-NaOH buffer for phosphate elimination. The protocol:
(§5) (b) Effect of elimination of the following substance from the assay system on the enzyme activity is shown below. 0.1 M dimethylglutarate-NaOH buffer is used in the case of phosphate elimination.
as §2, §3, §4

For experiment [6], the system named is pyruvate oxidase (B-0668). Described as above. In kind it is biochemical, Streptococcus sp. B-0668. The following applies: enzyme from B-0668, no elimination = 100, 0.1 M dimethylglutarate-NaOH buffer for phosphate elimination. How it is done: as §5, §2, §3, §4
The target of experiment [7] is T2, pyruvate oxidase (IFO-12219). The experiment is described as above. It counts as biochemical, Aerococcus viridans IFO-12219. The following applies: enzyme from IFO-12219, no elimination = 100, 0.1 M dimethylglutarate-NaOH buffer for phosphate elimination. How it is done:
as §5, §2, §3, §4

For experiment [8], the target named is T1, pyruvate oxidase (IFO-12317). The experiment is described as above. It counts as biochemical, Aerococcus viridans IFO-12317. The following applies: enzyme from IFO-12317, no elimination = 100, 0.1 M dimethylglutarate-NaOH buffer for phosphate elimination. The protocol:
as §5, §2, §3, §4

Turning to `[Ba+2].[Cl-].[Cl-]` [BaCl2], the “Relative activity (%)” value turned out to be 20.6% in [1], 28.8% in [2], 23.9% in experiment [3] and 58.8% in [4].
For the molecule `[Ca+2].[Cl-].[Cl-]` [CaCl2], the “Relative activity (%)” value in [1] was 69.4%; in experiment [2], 78.7%; in [3], 83.4%; in experiment [4], 75.0%. Also, in the experiment on pyruvate oxidase, the “Effect on the enzyme (inhibited / activated)” value is listed as “activated”.
The like results for `[Cl-].[Cl-].[Co+2]` [CoCl2] were, in that order, 81.3%, 84.0%, 85.0%, 81.1% and “activated”.
Regarding `O=C(O)CN(CCN(CC(=O)O)CC(=O)O)CC(=O)O` [EDTA, ethylene-diaminetetraacetic acid], the “Relative activity (%)” value in [1], in [3] and in experiment [4] was 0% each time. In addition, the “Effect on the enzyme (inhibited / activated)” value in the experiment with pyruvate oxidase is “inhibited”.
Consider `Cc1cc2nc3c(=O)[nH]c(=O)nc-3n(C[C@H](O)[C@H](O)[C@H](O)COP(=O)(O)OP(=O)(O)OC[C@H]3O[C@@H](n4cnc5c(N)ncnc54)[C@H](O)[C@@H]3O)c2cc1C` [FAD, flavin adenine dinucleotide], for which the “Relative activity (%), substance eliminated” value in experiment [5] is 33.9%; in experiment [6], 100%; in experiment [7], 32.7%. Also, in the experiment on pyruvate oxidase, the “Requirement of the enzyme for the substance (cofactor / substrate)” value (from here on “Requirement … (cofactor / substrate)”) is “requires”.
With `[Cl-].[Cl-].[Mg+2]` [MgCl2], the “Relative activity (%)” value in [1], in experiment [2], in experiment [3] and in experiment [4] was 100% each time. Besides, the “Effect on the enzyme (inhibited / activated)” value with pyruvate oxidase is given as “activated”.
`[Cl][Mn][Cl]` [MnCl2]: the “Relative activity (%)” value was found to be 129.1% in experiment [1], 111.0% in experiment [2], 116.2% in [3] and 102.7% in experiment [4]. The “Effect on the enzyme (inhibited / activated)” value with pyruvate oxidase is “activated”.
As for `Cc1ncc(C[n+]2csc(CCO[P@](=O)(O)OP(=O)(O)O)c2C)c(N)n1` [Thiaminepyrophosphate, thiamine pyrophosphate], the “Relative activity (%), substance eliminated” value in [5], in experiment [6] and in [7] was 0% throughout. In addition, the “Requirement … (cofactor / substrate)” value in the experiment with pyruvate oxidase is “requires”.
As to `[Cl-].[Cl-].[Zn+2]` [ZnCl2], the “Relative activity (%)” value in [1] stood at 16.0%; in [2], 22.8%; in experiment [3], 14.9%; in experiment [4], 38.2%.
Take phosphate: the “Relative activity (%), substance eliminated” value in experiment [5], in experiment [6], in experiment [7] and in experiment [8] was 0% each time. Also, the “Requirement … (cofactor / substrate)” value in the experiment on pyruvate oxidase is “requires”.
